These results are taken from patent US9908893B2 (Latvian Institute of Organic Synthesis, priority 2013, dated 2018).

Series [1] relates to A7R5 (rat aorta smooth muscle) cells. Kind of series: Intracellular Ca2+ measurements, Fluo-4 NW Calcium Assay Kit, KCl-induced [Ca2+]i increase. It is filed as cell-based. The following applies: for Ca^2+ antagonist effect compared with Verapamil: relative to Verapamil. The method, then:
Changes in intracellular [Ca^2+] concentration were studied using A7R5 (rat aorta smooth muscle) cells and Fluo-4 NW Calcium Assay Kit (“Invitrogen”, Sweden) according to manufacturer's instructions.
Changes in intracellular [Ca^2+]i concentration were studied using Fluo-4 NW Calcium Assay Kit (“Invitrogen”, Sweden) accordingly to manufacturer's instructions. The A7R5 (rat aorta smooth muscle) cells were grown at 37° C. in a humidified atmosphere with 5% CO2/95% air in DMEM medium containing 2 mM glutamine and supplemented with 10% FBS. The cells were seeded into 96 well plate at 10,000 cells/well and incubated for 72 h. The cells were loaded with […] for 45 min. The Fura-4NW loaded cells were pre-incubated in the dark for 15 minutes with tested compounds at concentrations from 0.8 to 100 μM. Then A7R5 cells were pre-treated with 1.5 mM CaCl2 for 5 minutes and KCl (50 mM) was added to A7R5 cells to induce [Ca^2+]i increase. Amlodipine, the well-known calcium channel inhibitor was used as the positive control.

The nature of series [2]: Basal toxicity test, neutral red, alternative LD50 calculated from IC50. The following applies: mouse, LD50, alternative LD50 calculated by formula from IC50 in NIH 3T3 cells. The method, then: A low therapeutic index of chemotherapy agents is due to affecting not only cancer formation but also normal cells.
9,000 NIH 3T3 cells/well were placed into 96-well plates for 24 h and then exposed to the test compound over a range of eight concentration (1-1000 μg/ml) for 24 h. Upon that, the cells were incubated with the neutral red dye for 4 h and then OD was determined at 540 nm. […] The IC50 values were calculated using the program Graph Pad Prism® 4.0

Where [3] appears, read: Rattus norvegicus, A7R5, read-out: Ca^2+ A7R5, IC50.

Each structure is given as a SMILES string. Like-named read-outs stand apart in the source and are kept apart here.

For `COc1ccc(C(=O)c2sc3nc(C)c(C(C)=O)c(-c4ccc(OC)c(OC)c4)c3c2N)cc1` [Compound 1, 5-Acetyl-3-amino-4-(3,4-dimethoxyphenyl)-2-(4-methoxybenzoyl)-6-methyl-thieno[2,3-b]pyridine], in series [1] (setting [3]), the concentration for half-maximal inhibition (IC50) came to 24 ± 1.2 µM. In addition, in series [2], the LD50 at 24 h was above 2000 mg/kg.
For the compound `COc1ccc(C(=O)c2sc3nc(C)c(C(C)=O)c(-c4ccc(OC)c(OC)c4)c3c2N)c(OC)c1` [Compound 2, 5-Acetyl-3-amino-2-(2,4-dimethoxybenzoyl)-4-(3,4-dimethoxyphenyl)-6-methyl-thieno[2,3-b]pyridine], the IC50 in series [1] (setting [3]) turned out to be 15 ± 1.1 µM. For the same compound, the LD50 at 24 h in series [2] is above 2000 mg/kg.
As to `COc1ccc(C(=O)c2sc3nc(C)c(C(C)=O)c(-c4cc(OC)c(OC)c(OC)c4)c3c2N)cc1` [Compound 3, 5-Acetyl-3-amino-2-(4-methoxybenzoyl)-6-methyl-4-(3,4,5-trimethoxyphenyl)-thieno[2,3-b]pyridine], in series [1] (setting [3]), the IC50 was 14 ± 0.9 µM. The “Ca^2+ antagonist effect compared with Verapamil” value in series [1] (A7R5 cells) is given as “more than ten times lower”. Besides, the LD50 at 24 h in series [2] was above 2000 mg/kg.
`COc1ccc(C(=O)c2sc3nc(C)c(C(C)=O)c(-c4cc(OC)c(OC)c(OC)c4)c3c2N)c(OC)c1` [Compound 4, 5-Acetyl-3-amino-2-(2,4-dimethoxybenzoyl)-6-methyl-4-(3,4,5-trimethoxyphenyl)-thieno[2,3-b]pyridine]: in series [1] (A7R5 cells, KCl (50 mM) induced [Ca2+]i increase, compounds 0.8 to 100 μM), the “Ca^2+ A7R5, IC50” value was “No effect”. In addition, in series [2], the median lethal dose (LD50) at 24 h is 1070 mg/kg.
On to `COC(=O)c1c(C)nc2sc(C(=O)c3ccc(OC)cc3)c(N)c2c1-c1ccc(OC)cc1` [Compound 5, 3-Amino-2-(4-methoxybenzoyl)-4-(4-methoxyphenyl)-6-methyl-thieno[2,3-b]-pyridine-5-carboxylic acid methyl ester], for which the IC50 in series [1] (setting [3]) came out at 15.4 ± 2 µM. The LD50 at 24 h in series [2] is above 2000 mg/kg.
With `COC(=O)c1c(C)nc2sc(C(=O)c3ccc(OC)cc3OC)c(N)c2c1-c1ccc(OC)c(OC)c1` [Compound 7, 3-Amino-2-(2,4-dimethoxybenzoyl)-4-(3,4-dimethoxyphenyl)-6-methyl-thieno[2,3-b]pyridine-5-carboxylic acid methyl ester], the IC50 in series [1] (setting [3]) was determined as 5.6 ± 1.4 µM. In addition, in series [2], the LD50 at 24 h is 1040 mg/kg.
As for `COC(=O)c1c(C)nc2sc(C(=O)c3ccc(F)cc3)c(N)c2c1-c1cc(OC)c(OC)c(OC)c1` [Compound 8, 3-Amino-2-(4-fluorobenzoyl)-6-methyl-4-(3,4,5-trimethoxyphenyl)thieno[2,3-b]-pyridine-5-carboxylic acid methyl ester], in series [1] (setting [3]), the IC50 came to 3 ± 0.8 µM. Moreover, the LD50 at 24 h in series [2] is above 2000 mg/kg.
The matching figures for `COC(=O)c1c(C)nc2sc(C(=O)c3ccc(Cl)cc3)c(N)c2c1-c1cc(OC)c(OC)c(OC)c1` [Compound 9, 3-Amino-2-(4-chlorobenzoyl)-6-methyl-4-(3,4,5-trimethoxyphenyl)thieno[2,3-b]-pyridine-5-carboxylic acid methyl ester]: 3 ± 0.2 µM and 1420 mg/kg.
Taken in the same sequence, the figures for `CCOC(=O)c1c(C)nc2sc(C(=O)c3ccc(OC)cc3)c(N)c2c1-c1ccc(O)cc1` [Compound 14, 3-Amino-4-(4-hydroxyphenyl)-2-(4-methoxybenzoyl)-6-methylthieno[2,3-b]-pyridine-5-carboxylic acid ethyl ester] were 4.3 ± 0.7 µM and 231 mg/kg.
`CCOC(=O)c1c(C)nc2sc(C(=O)c3ccc(OC)cc3)c(N)c2c1-c1ccc(O)c(OC)c1` [Compound 16, 3-Amino-4-(4-hydroxy-3-methoxyphenyl)-2-(4-methoxybenzoyl)-6-methyl-thieno[2,3-b]pyridine-5-carboxylic acid ethyl ester]: the IC50 in series [1] (setting [3]) was found to be 3.7 ± 0.4 µM. The “Ca^2+ antagonist effect compared with Verapamil” value in series [1] (A7R5 cells) is “more than ten times lower”. For the same compound, the median lethal dose (LD50) at 24 h in series [2] was above 2000 mg/kg.
Take `CCOC(=O)c1c(C)nc2sc(C(=O)c3ccc(OC)cc3)c(N)c2c1-c1ccc(OC)cc1` [Compound 17, 3-Amino-2-(4-methoxybenzoyl)-4-(4-methoxyphenyl)-6-methylthieno[2,3-b]-pyridine-5-carboxylic acid ethyl ester]: the IC50 in series [1] (setting [3]) came out at 100 ± 11 µM. Moreover, the LD50 at 24 h in series [2] is above 2000 mg/kg.
For the compound `CCOC(=O)c1c(C)nc2sc(C(=O)c3ccc(F)cc3)c(N)c2c1-c1ccc(OC)c(OC)c1` [Compound 18, 3-Amino-4-(3,4-dimethoxyphenyl)-2-(4-fluorobenzoyl)-6-methylthieno[2,3-b]-pyridine-5-carboxylic acid ethyl ester], in series [1] (setting [3]), the IC50 worked out at 7 ± 1.2 µM. Also, the LD50 at 24 h in series [2] was above 2000 mg/kg.
As to `CCOC(=O)c1c(C)nc2sc(C(=O)c3ccc(Cl)cc3)c(N)c2c1-c1ccc(OC)c(OC)c1` [Compound 19, 3-Amino-2-(4-chlorobenzoyl)-4-(3,4-dimethoxyphenyl)-6-methylthieno[2,3-b]-pyridine-5-carboxylic acid ethyl ester], the IC50 in series [1] (setting [3]) was 11 ± 0.7 µM. The LD50 at 24 h in series [2] was above 2000 mg/kg.
As to `CCOC(=O)c1c(C)nc2sc(C(=O)c3ccc(OC)cc3)c(N)c2c1-c1ccc(OC)c(OC)c1` [Compound 20, 3-Amino-4-(3,4-dimethoxyphenyl)-2-(4-methoxybenzoyl)-6-methylthieno[2,3-b]-pyridine-5-carboxylic acid ethyl ester], the IC50 in series [1] (setting [3]) came to 3 ± 0.4 µM. Besides, in series [2], the LD50 at 24 h is 2040 mg/kg.
Consider `CCOC(=O)c1c(C)nc2sc(C(=O)c3ccc(OC)cc3OC)c(N)c2c1-c1ccc(OC)c(OC)c1` [Compound 21, 3-Amino-2-(2,4-dimethoxybenzoyl)-4-(3,4-dimethoxyphenyl)-6-methyl-thieno[2,3-b]pyridine-5-carboxylic acid ethyl ester], for which the half-maximal inhibitory concentration (IC50) in series [1] (setting [3]) amounted to 1.2 ± 0.2 µM. Besides, in series [2], the LD50 at 24 h was 2360 mg/kg.
Take `CCOC(=O)c1c(C)nc2sc(C(=O)c3ccc(F)cc3)c(N)c2c1-c1cc(OC)c(OC)c(OC)c1` [Compound 22, 3-Amino-2-(4-fluorobenzoyl)-4-(3,4,5-trimethoxyphenyl)-6-methylthieno[2,3-b]-pyridine-5-carboxylic acid ethyl ester]: in series [1] (setting [3]), the IC50 worked out at 20 ± 2 µM. In addition, in series [1] (A7R5 cells), the “Ca^2+ antagonist effect compared with Verapamil” value is “more than ten times lower”. Further, the LD50 at 24 h in series [2] is above 2000 mg/kg.
In the case of `CCOC(=O)c1c(C)nc2sc(C(=O)c3ccc(Cl)cc3)c(N)c2c1-c1cc(OC)c(OC)c(OC)c1` [Compound 23, 3-Amino-2-(4-chlorobenzoyl)-4-(3,4,5-trimethoxyphenyl)-6-methylthieno[2,3-b]-pyridine-5-carboxylic acid ethyl ester], the IC50 in series [1] (setting [3]) worked out at 4 ± 0.4 µM. Moreover, the LD50 at 24 h in series [2] is 2700 mg/kg.
Taken in the same sequence, the figures for `CCOC(=O)c1c(C)nc2sc(C(=O)c3ccc(OC)cc3)c(N)c2c1-c1ccc(OCC)cc1` [Compound 26, 3-Amino-4-(4-ethoxyphenyl)-2-(4-methoxybenzoyl)-6-methylthieno[2,3-b]-pyridine-5-carboxylic acid ethyl ester] were above 100 µM and above 2000 mg/kg.
With `CCCOCCOC(=O)c1c(C)nc2sc(C(=O)c3ccc(OC)cc3OC)c(N)c2c1-c1cc(OC)c(OC)c(OC)c1` [Compound 37, 3-Amino-2-(2,4-dimethoxybenzoyl)-6-methyl-4-(3,4,5-trimethoxyphenyl)-thieno[2,3-b]pyridine-5-carboxylic acid 2-propoxyethyl ester], the IC50 in series [1] (A7R5 cells, KCl (50 mM) induced [Ca2+]i increase, compounds 0.8 to 100 μM, read-out: Ca^2+ A7R5, IC50) is above 100 µM.
For `COc1ccc(C(=O)c2sc3nc(C)cc(C)c3c2N)c(OC)c1` [Compound 45, 3-Amino-4,6-dimethyl-2-(2,4-dimetoxybenzoyl)thieno[2,3-b]pyridine], the LD50 at 24 h in series [2] was 959 mg/kg.
